Patent publication US20160206597A1, “New Use” (priority 2013, published 2016)

Experiments:
[1] = test system: patients with chronic heart failure with preserved left-ventricular ejection fraction (HF-PEF); assay: Echocardiographic parameters in the 36-week HF-PEF study; assay type: in vivo, human; details: for LA Volume Index, Δ from Baseline / LA Volume, Δ from Baseline / LA dimension, Δ from Baseline / LV mass index, Δ from Baseline / Relative wall thickness, Δ from Baseline: at 36 weeks
Method: Echocardiographic studies are performed at screening, randomization, at week 12, and week 36 or at end of study or early termination visits. Echocardiograms performed at screening are evaluated by local readers for qualifying information. All other echocardiograms are only performed in patients meeting NT-proBNP entry criterion and are evaluated centrally. For assessment of global ventricular size and function, left ventricular end-diastolic and end-systolic volumes are obtained utilizing the Simpson's rule method and left ventricular ejection fraction is derived in the usual fashion. Maximal left atrial dimension is measured in the parasternal long-axis view, and left atrial volume is assessed with the Simpson's rule method and indexed to body surface area. Measurements are made in triplicate in accordance with the recommendations of the American Society of Echocardiography. Blood pressure and heart rate are measured at all study visits with a calibrated standard sphygmomanometer and appropriate size cuff. The use of concomitant medication is recorded at each study visit.

[2] = test system: patients with chronic heart failure with preserved left-ventricular ejection fraction (HF-PEF); assay: NT-proBNP in 36-week randomized double-blind study of LCZ696 vs valsartan; assay type: in vivo, human; details: for NT-proBNP at 12 weeks / NT-proBNP at 36 weeks / NT-proBNP, Baseline (12-week analysis) / NT-proBNP, Baseline (36-week analysis): geometric mean; for NT-proBNP at 12 weeks / NT-proBNP at 36 weeks: LCZ696 200 mg or valsartan 160 mg twice daily; for NT-proBNP, Baseline (12-week analysis) / NT-proBNP, Baseline (36-week analysis): baseline before treatment; for NT-proBNP, Baseline (12-week analysis): patients evaluated at 12 weeks; for NT-proBNP, Baseline (36-week analysis): patients evaluated at 36 weeks; for Ratio of change in NT-proBNP (LCZ696/valsartan) at 12 weeks: baseline to 12 weeks, 95% CI 0.64-0.92, p = 0.005
Excerpt: (§1) Men and women aged 40 years or older with a left ventricular ejection fraction of 45% or above, and a documented history of heart failure with associated signs or symptoms (dyspnea on exertion, orthopnea, paroxysmal dyspnea, and peripheral edema) are eligible. Patients are required to have an NT-proBNP >400 pg/mL at screening, be on diuretic therapy, and have a systolic blood pressure less than 140 mm Hg, or 160 mm Hg or less if on three or more blood pressure medications at randomization. Additional inclusion criteria include an estimated glomerular filtration rate (eGFR) of at least 30 ml/min/1.73 m^2 at screening (calculated by the Modification of Diet in Renal Disease formula) and a potassium concentration of no more than 5.2 mmol/L.
Patients are excluded if they had prior left ventricular ejection fraction less than 45% at any time, isolated right heart failure due to pulmonary disease, dyspnea due to non-cardiac causes such as pulmonary disease, anemia, or severe obesity, primary valvular or myocardial diseases, or coronary artery or cerebrovascular disease requiring revascularization within 3 months of screening or likely to require revascularization during the trial.

[3] = test system: patients with chronic heart failure with preserved left-ventricular ejection fraction (HF-PEF); assay: Renal function parameters (eGFR, serum creatinine, urinary albumin creatinine ratio) in the 36-week HF-PEF study; assay type: in vivo, human; details: for urinary albumin creatinine ratio at baseline: baseline before treatment; for eGFR decrease over 36 weeks: p=0.007; for urinary albumin creatinine ratio at week 36: p=0.02 between groups
Method: The term “eGFR” refers to estimated glomerular filtration rate. Within the context of the present invention the eGFR is calculated by the Modification in Diet in Renal Disease (MDRD) formula, which is the one recommended by NICE and The Renal Association (UK), and which is based on the equation described in Levey A S, Bosch J P, Lewis J B, et al; “A more accurate method to estimate glomerular filtration rate from serum creatinine: a new prediction equation. Modification of Diet in Renal Disease Study Group.” Ann Intern Med. 1999 Mar. 16; 130(6):461-70.
as §1

[4] = test system: patients with chronic heart failure with preserved left-ventricular ejection fraction (HF-PEF); assay: Safety and tolerability in the 36-week HF-PEF study; details: 36-week study
Method: (§2) Eligible patients are enrolled into a 2-week, single-blind placebo run-in period, during which time they continue their background medications. ACE inhibitors and angiotensin receptor blockers are required to be discontinued 24 hours prior to randomization.
(§3) At the investigator's discretion, patients are allowed to stay on each titration dose for an additional week. […] Patients remain on these doses for the remainder of the study, although those not tolerating the maximum dose of study medication could be down-titrated to a lower dose at the Investigator's discretion and then re-challenged to the maximum dose of study medication, or remain on the lower dose.

[5] = test system: patients with chronic heart failure with preserved left-ventricular ejection fraction (HF-PEF); assay: NYHA class, clinical composite assessment and KCCQ in the 36-week HF-PEF study; details: p=0.05
Method: as §2, §3
The primary study endpoint is the change from baseline in NT-proBNP assessed at 12 weeks, and is analyzed using the last observation after baseline carried forward. […]
The clinical composite assessment is based on a composite of the NYHA functional classification, patient global assessment and major adverse clinical events. […] Patients are determined to be worse if at the endpoint visit they experienced a major adverse cardiac event during the double blind treatment or reported worsening of their NYHA class or patient global assessment. […]

Molecule	LA Volume Index, Δ from Baseline [1] [ml/m^2]	LA Volume, Δ from Baseline [1] [mL]	LA dimension, Δ from Baseline [1] [cm]	LV mass index, Δ from Baseline [1] [g/m^2]	Relative wall thickness, Δ from Baseline [1]	LA Volume Index, Baseline ([1]; baseline before treatment) [ml/m^2]	LA Volume, Baseline ([1]; baseline before treatment) [mL]	LA dimension, Baseline ([1]; baseline before treatment) [cm]	LV mass index, Baseline ([1]; baseline before treatment) [g/m^2]	NT-proBNP at 12 weeks ([2]; 12 weeks) [pg/mL]	NT-proBNP at 36 weeks [2] [pg/mL]	NT-proBNP, Baseline (12-week analysis) [2] [pg/mL]	NT-proBNP, Baseline (36-week analysis) [2] [pg/mL]	urinary albumin creatinine ratio at baseline [3] [mg/mmol]	eGFR decrease over 36 weeks [3] [mL/min per 1.73 m^2]	urinary albumin creatinine ratio at week 36 [3] [mg/mmol]	other results
CCCCC(=O)N(Cc1ccc(-c2ccccc2-c2nnn[nH]2)cc1)[C@H](C(=O)O)C(C)C [Valsartan, (S)—N-valeryl-N-{[2′-(1H-tetrazole-5-yl)-biphenyl-4-yl]-methyl}-valine, reference compound]	0.31	0.37	−0.08	−1.93	+0.01%	36.80	68.28	3.73	79.45	835	607	862	822	2.0	−5.2	2.0	Adverse event atrial fibrillation (number of patients) [4]: 8 patients; Adverse event atrial fibrillation (percent of patients) [4]: 5.3%; Angio-oedema occurrence [4]: no patients; Deaths among serious adverse events [4]: two deaths; Patients with one or more serious adverse events (number) [4]: 30 patients; Patients with one or more serious adverse events (percent) [4]: 20%
trisodium [3-((1S,3R)-1-biphenyl-4-ylmethyl-3-ethoxycarbonyl-1-butylcarbamoyl) propionate-(S)-3′-methyl-2′-(pentanoyl{2″-(tetrazol-5-ylate)biphenyl-4′-ylmethyl}amino)butyrate]hemipentahydrate [LCZ696]	−2.61	-4.61	−0.15	−2.78	+0.01%	35.01	65.26	3.68	76.56	605	496	783	763	1.9	−1.6	2.9	Left atrial volume, left atrial volume index (LAVI) and left atrial dimension, result in words ([1]; after 36 weeks of treatment, p=0.003, 0.007 and 0.034): reduced significantly; Relative wall thickness, Baseline ([1]; baseline before treatment): 0.37; Reduction in NT-proBNP versus valsartan after adjustment for the change in blood pressure ([2]; 12 weeks, p=0.01): greater reduction; Early reduction in NT-proBNP compared with the valsartan group ([2]; after 4 weeks of treatment, p=0.063): not significant; Ratio of change in NT-proBNP (LCZ696/valsartan) at 12 weeks [2]: 0.77; Ratio of change in NT-proBNP (LCZ696/valsartan) at 12 weeks ([2]; listed as LZC696): 0.77 (95% CI; Ratio of change in NT-proBNP (LCZ696/valsartan) at 36 weeks ([2]; baseline to 36 weeks, 95% CI 0.65-1.09, p = 0.20): 0.85 (95% CI; Preservation of renal function compared with valsartan ([3]; after 36 weeks of therapy, eGFR and creatinine data): better preserved renal function; eGFR, LSM of difference (95% CI), LCZ696 vs. Valsartan ([3]; at 36 weeks, P 0.0163): 3.46 (0.64, 6.27) mL/min/1.73 m^2; Serum creatinine, LSM of difference (95% CI), LCZ696 vs. Valsartan ([3]; at 36 weeks, P 0.0193): −4.83 (−8.87, −0.79) μmol/L; NYHA class at 36 weeks compared with the valsartan group [5]: improvement in NYHA class
